The source of these data is patent EP1282604B1, “SUBSTITUTED CAPROLACTAM CARBONATES AND ETHERS AND THEIR USE AS ANTI-TUMOR AGENTS” (Novartis AG, priority 2000, dated 2001).

For data set [1], the system named is MDA-MB-435 human breast carcinoma. The experiment in a line: Anchorage Dependent Growth Monolayer Assay (ADGMA), MTS readout. The class given is cell-based. The settings on record: Homo sapiens, 72 h; 3-day exposure, MDA-MB-435 cells; read-out: IC50 values (average ± S.D.) MDA-MB-435. The source says:
(§1) As indicated above, all of the compounds of formula I, and their corresponding pharmaceutically acceptable acid addition salts, are anti-tumor agents and are, therefore, useful in inhibiting the growth of various lymphomas, sarcomas, carcinomas, myelomas, and leukemia cell lines. […] This assay was adapted from the 60 cell line assay used by the National Cancer Institute (NCl) with the following modifications: 1) cell lines representative for the important tumor types, viz., MDA-MB-435 human breast, A549 non-small cell lung, H1299 lung, HCT-116 colon and PC-3 prostate carcinomas, and U2OS osteosarcomas were utilized; and 2) a tetrazolium derivative, viz., 3-(4,5-dimethylthiazol-2-yl)-5-(3-carboxymethoxyphenyl)-2-(4-sulfophenyl)-2H-tetrazolium, inner salt (MTS), was utilized to determine cell density.
(§2) The ADGMA compares the number of viable cells following a 3-day exposure to a test compound relative to a number of cells present at the time the test compound was added. […] The absorbance at 490 nm (A490) of the formazan derivative is proportional to the number of viable cells. The IC50 for a test compound is the concentration of compound required to reduce the final cell number to 50% of the final control cell number. If cell proliferation is inhibited, the assay further defines compounds as cytostatic (cell number after 3-day compound incubation >cell number at time of compound addition) or cytotoxic (cell number after 3-day compound incubation <cell number at time of compound addition).
(§3) The MDA-MB-435 human breast carcinoma and the A549 non-small cell lung carcinoma lines were obtained from the American Type Culture Collection (ATCC) and used between passages 4-20 following thawing. MDA-MB-435 human breast carcinoma and A549 non-small cell lung carcinoma cells were maintained and plated in DME/F12 medium containing 10% fetal bovine serum, 15 mM HEPES (pH=7.4), 100 units/mL penicillin, and 100 µg/mL streptomycin.
(§4) Cell lines are trypsinized and counted using a Coulter counter to determine plating densities. Cells are then plated in their respective maintenance media (100 µL/well) in 96 well plates at the following densities: MDA-MB-435 and U2OS, 3,000 cells/well; A549 and HCT-116, 700 cells/well; H1299, 1,000 cells/well; and PC-3, 2500 cells/well. The number of cells plates as determined in preliminary experiments, results in cell densities of 75-90% of confluency by 4 days after plating. Initial cell densities, assayed one day after plating, are roughly 0.15-0.20 absorbance units greater than the media blank. Ninety-six well plates are seeded on day 0 and the test compounds are added on day 1. A control plate is created for each cell line that receives media only in row A and cells in row B. One day following plating, test compounds are added (in a final volume of 100 µL) to the test plates. Control plates receive 10 µL MTS mixture (prepared fresh on day of addition to cell plates at a ratio of 10 µL of a 0.92 mg/mL solution of PMS to a 190 µL of a 2 mg/mL solution of MTS) and 100 µL media. A490 of control plates is read 4 h after MTS addition to determine initial cell density values for each cell line. Three days after addition of test compound, 10 µL/well of MTS mixture is added to the test plates and A490 is read 4 h later. A490 values for wells containing cells are corrected for media absorbance, then normalized to initial density readings to determine percent net growth. IC50 values are determined from graphs of percent net growth as a function of compound concentration. Percent net growth is calculated as (Cell + Drug A490 - Initial A490/Cell + Drug Vehicle A490 - Initial A490) x 100%.

Data set [2] has as its system A549 non-small cell lung carcinoma. The description is as above. The class given is cell-based, human. The following applies: Homo sapiens, 72 h; 3-day exposure, A549 cells; read-out: IC50 values (average ± S.D.) A549.
Text: as §1, §2, §3, §4

In another data set the test system is H1299 lung carcinoma. The data set is described as above. The following applies: Homo sapiens, NCI-H1299, 72 h; 3-day exposure, H1299 cells; read-out: IC50 values (average ± S.D.) H1299. The class given is cell-based.
Text: as §1, §2
(§5) The H1299 lung, HCT-116 colon, and PC-3 prostate carcinoma cell lines, and U2OS osteosarcoma cell line were obtained from the American Type Culture Collection (ATCC) and used between passages 4-20 following thawing. H1299 and HCT-116 cells were maintained in RPMI 1640 containing 10% FBS, 100 units/mL penicillin and 100 µg/mL streptomycin; PC-3 cells were maintained in Kahn's Modification containing 10% FBS, 100 units/mL penicillin and 100 µg/mL streptomycin; and U2OS cells were maintained in DMEM containing 10% FBS, 100 units/mL penicillin and 100 µg/mL streptomycin.
as §4

The subject of a further data set is HCT-116 colon carcinoma. The description is as above. The class given is cell-based. The following applies: Homo sapiens, 72 h; 3-day exposure, HCT-116 cells; read-out: IC50 values (average ± S.D.) HCT-116.
Text: as §1, §2, §5, §4

In a further data set the test system is PC-3 prostate carcinoma. The description is as above. The class given is cell-based. The following applies: Homo sapiens, 72 h; 3-day exposure, PC-3 cells; read-out: IC50 values (average ± S.D.) PC-3.
Text: as §1, §2, §5, §4

The subject of the next data set is U2OS osteosarcoma. The data set is described as above. The following applies: Homo sapiens, 72 h; 3-day exposure, U2OS cells; read-out: IC50 values (average ± S.D.) U2OS. The class given is cell-based.
Text: as §1, §2, §5, §4

Data set [3] relates to MDA-MB-435 tumor xenografts. Description: Human tumor xenograft growth inhibition in athymic nude mice. The settings on record: 2 mg/kg iv, 3X/week for 3 weeks. It is filed as in vivo. The method, then: Utilizing this model, one can measure the ability of test compounds to inhibit the growth of human tumor xenografts growing subcutaneously (s.c.) in athymic nude mice. The histologic tumor type employed was MDA-MB-435 breast carcinoma for Ex.1 and 7 and A549 non-small cell lung carcinoma for Ex. 1-3.
MDA-MB-435 human breast carcinoma: Treatments were started 15 d post implantation (3 x 10^6 cells/mouse), when a mean tumor volume of approximately 45 mm^3 was reached. Ex.1 and 7 were administered iv at three times per week for 3 weeks (days 15, 17, 20, 22, 24, 27, 29, and 31), at 3.3, 10, and 33 µmol/kg. Doxorubicin was administered iv at 2 mg/kg using the same schedule. Each data point represents tumor growth (mean ± SEM), or body weight (mean), with an initial group size of n = 8, from a representative experiment performed twice. An asterisk (*) indicates p < 0.05 using a one-tailed Student's t-test.
Toxicity was monitored by recording average group body weights twice weekly, and by daily observation of general health. Efficacy was monitored by taking measurements of tumor length, width, and depth weekly using digital calipers coupled to automated data collectors. Mean tumor volume (MTV) at initiation of therapy was subtracted from final MTV in order to express the actual tumor growth during treatment (A MTV). Anti-tumor activity was expressed as %T/C (A MTV of treated group ÷ Δ MTV of control group X100%). Statistical significance was evaluated using a one-tailed Student's t-test (p<0.05).
(In general: In xenograft studies the graft and the host belong to different species.)

Structures are written as SMILES.

For orientation: IC50 means the concentration that gives 50% inhibition. As to `CO[C@@H](C(=O)N[C@H]1CC[C@@H](OC(=O)OCc2ccccc2)CNC1=O)[C@H](O)[C@@H](O)[C@H](O)/C=C/C(C)(C)C` [Ex. 4, (2R, 3R, 4S, 5R, 6E)-3,4,5-trihydroxy-2-methoxy-8,8-dimethyl-N-[(3S, 6R)-hexahydro-2-oxo-6-([[phenylmethoxy]carbonyl]oxy)-2H-azepin-3-yl]non-6-enonamide], the IC50 came to 130 ± 70 nM in data set [1]; 158 ± 16 nM in data set [2]; 170 ± 130 nM in the data set on H1299 lung carcinoma; 80 ± 10 nM with HCT-116 colon carcinoma; 80 nM with PC-3 prostate carcinoma; 250 ± 140 nM with U2OS osteosarcoma.
Regarding `COc1cccc2c1C(=O)c1c(O)c3c(c(O)c1C2=O)C[C@@](O)(C(=O)CO)C[C@@H]3O[C@H]1C[C@H](N)[C@H](O)[C@H](C)O1` [doxorubicin, reference compound], the half-maximal inhibitory concentration (IC50) came to 400 ± 10 nM in data set [1]; 500 ± 160 nM in data set [2]; 430 ± 290 nM with H1299 lung carcinoma; 80 ± 60 nM in the data set with HCT-116 colon carcinoma; 330 ± 120 nM in the data set with PC-3 prostate carcinoma; 130 ± 30 nM in the data set on U2OS osteosarcoma. Besides, the Dead/Total in data set [3] is 0/8. Moreover, in data set [3], the “Δ MTV” value is given as 82 mm^3. Also, the “%T/C” value in data set [3] (* = p<0.05) is recorded as 46* %.
